How the values were obtained:
[1] = tested on: Staphylococcus aureus ATCC 6538; test: Quantitative evaluation of antibacterial activity of bank note samples, modified AATCC 100-1993; details: 625 ppm agent in acrylate coating
Protocol: (§1) For the testing, a protocol was selected which measured the percent kill in a bacterial population over a period of time when put in contact with banknote samples.
(§2) Tests were conducted against two common bacteria: the gram-positive Staphylococcus aureus, which is found almost everywhere in and on the body, and which can cause numerous infections; as well as the gram-negative Escherichia coli, which is a common “bathroom bacteria” that can cause severe food poisoning. With good results against these organisms, efficacy against a broad spectrum of other bacteria can be predicted.
(§3) Ten samples marked Secu-GB1-A-260503, Secu-GB2-A-260503, Secu-GB3-A-260503, Secu-GB4-A-260503, Secu-GB5-A-260503, Secu-C-A-260503, Secu-C-B-260503, Secu-C-C-260503, Secu-C-D-260503 and Secu-C-E-260503 were manufactured employing 2,4,4′-trichloro-2′-hydroxydiphenyl ether in the acrylate composition applied as a coating layer on the planar material.
(§4) Samples from the bank note prototypes were evaluated for their antibacterial activity in accordance with the modified method AATCC 100-1993. The tests were performed against the organisms Staphylococcus aureus ATCC 6538 and Escherichia coli ATCC 8739.

[2] = tested on: Escherichia coli ATCC 8739; test: as above; details: 625 ppm agent in acrylate coating
Protocol: as §1, §2, §3, §4

SMILES: Oc1cc(Cl)ccc1Oc1ccc(Cl)cc1Cl [2,4,4′-trichloro-2′-hydroxydiphenyl ether]
- log reductions (in words) [1]: strong log reductions
- log reductions (in words) [2]: strong log reductions

From patent publication US20110200656A1, “ANTIMICROBIAL CURRENCY, MATERIAL AND METHOD” (MICROBAN PRODUCTS COMPANY, priority 2007, published 2011)
